From patent US20250304537A1 (Repare Therapeutics Inc., priority 2022, published 2025)
Read-outs that look alike come from different tables or passages of the source.

Key:
[1] = test system: PKMYT1 (CDK1 pThr14) in FUOV1 cells; test: PKMYT1 cell-based activity assay, CDK1 pThr14 AlphaLISA in FUOV1 cells; conditions: read-out: FUOV-1 CDK1 pThr14 IC50
In short: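 IC50 was derived from AlphaLISA signal (excitation 680 nm, emission 615 nm) for phospho-Thr14 CDK1 in lysates. The detection antibodies were rabbit anti-pThr14 and mouse anti-total CDK1, each at 5 nM. FUOV1 ovarian cells were exposed to compound for 2 hours before lysis.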

[2] = biological target: recombinant human Myt1 (full length PKMYT1) (Homo sapiens (Human), UniProt Q99640); test: Recombinant human Myt1 kinase assay (ADP-Glo); type: biochemical; conditions: 10 μM ATP
In short: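 ADP-Glo luminescence measured ATP hydrolysis by recombinant full-length PKMYT1 (18 nM) after 60 min at 30 °C with 10 μM ATP. Compounds in 0.5% DMSO were added to the enzyme 15 min before ATP, at 22 °C, in HEPES/MgCl2/MnCl2 buffer. IC50 and percent maximal inhibition were derived.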

Sequence of recombinant human Myt1 (full length PKMYT1) (Q99640 whole entry): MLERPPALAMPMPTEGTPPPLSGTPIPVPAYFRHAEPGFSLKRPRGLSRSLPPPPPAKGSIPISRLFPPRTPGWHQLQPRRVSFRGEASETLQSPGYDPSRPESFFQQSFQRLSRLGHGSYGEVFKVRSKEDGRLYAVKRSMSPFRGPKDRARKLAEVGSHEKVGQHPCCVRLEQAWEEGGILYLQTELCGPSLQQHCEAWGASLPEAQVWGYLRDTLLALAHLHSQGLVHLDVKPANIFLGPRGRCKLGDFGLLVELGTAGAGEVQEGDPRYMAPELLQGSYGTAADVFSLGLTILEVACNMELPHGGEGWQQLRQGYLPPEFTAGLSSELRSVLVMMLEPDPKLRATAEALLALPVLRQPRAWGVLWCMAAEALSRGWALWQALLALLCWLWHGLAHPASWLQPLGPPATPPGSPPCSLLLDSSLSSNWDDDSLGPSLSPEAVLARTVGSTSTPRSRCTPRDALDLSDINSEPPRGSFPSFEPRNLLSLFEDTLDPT

SMILES	IC50 ([1]; 2 h, 2 h compound incubation) [nM]	IC50 [2] [nM]	IC50 ([1]; 2 h, 2 h incubation) [nM]	IC50 ([1]; 2 h incubation) [nM]	IC50 ([1]; 2 h, 2 hours with compound) [nM]
Cc1ccc2[nH]ncc2c1-c1nc(-c2cccc3c2NC(=O)C32CC2)nc(C(N)=O)c1N [Compound 399]	143	17	–	–	–
COc1cccc(-c2cc(-c3c(C)ccc(O)c3C)c(N)c(C(N)=O)n2)n1 [Compound 62]	–	8	117	–	–
Cc1ccc2[nH]ncc2c1-c1nc(-c2cccc3ncsc23)nc(C(N)=O)c1N [Compound 380]	–	6	772	–	–
Cc1ccc2[nH]ncc2c1-c1nc(-c2ccccc2NC(=O)C2(C3CC3)CC2)nc(C(N)=O)c1N [Compound 478]	80	6	–	–	–
Cc1ccc2[nH]ncc2c1-c1cc(-c2ccnc(OCCc3ncc[nH]3)n2)nc(C(N)=O)c1N [Compound 240]	–	8	996	–	–
Cc1ccc2[nH]ncc2c1-c1nc(-c2cc(Cl)ccc2NC(=O)C2(C)CC2)nc(C(N)=O)c1N [Compound 439]	42	6	–	–	–
Cc1ccc2[nH]ncc2c1-c1cc(-c2cccc(OCCN3CCNCC3)n2)nc(C(N)=O)c1N [Compound 183]	–	13	281	–	–
Cc1ccc2[nH]ncc2c1-c1cc(-c2cccc(OCc3ccncn3)n2)nc(C(N)=O)c1N [Compound 244]	–	11	193	–	–
Cc1ccc2[nH]ncc2c1-c1cc(-c2cccc(O[C@H](C)c3ncccn3)n2)nc(C(N)=O)c1N [Compound 254]	–	5	204	–	–
Cc1ccc(O)c(C)c1-c1cc(-c2cncs2)nc(C(N)=O)c1N [Compound 90]	–	3	–	58	–
COCCNc1nccc(-c2cc(-c3c(C)ccc4[nH]ncc34)c(N)c(C(N)=O)n2)n1 [Compound 214, 3-amino-6-(2-((2-methoxyethyl)amino)pyrimidin-4-yl)-4-(5-methyl-1H-indazol-4-yl)picolinamide]	–	5	444	–	–
Cc1ccc2[nH]ncc2c1-c1nc(-c2ccccc2NC(=O)c2cccc(F)c2)nc(C(N)=O)c1N [Compound 460]	825	10	–	–	–
Cc1ccc2[nH]ncc2c1-c1cc(-c2ccnc(N3CCOCC3)n2)nc(C(N)=O)c1N [Compound 198]	–	9	970	–	–
Cc1ccc2[nH]ncc2c1-c1cc(-c2cccnc2)nc(C(N)=O)c1N [Compound 107]	–	11	495	–	–
Cc1ccc2[nH]ncc2c1-c1nc(-c2cn(C)nc2NC(C)C)nc(C(N)=O)c1N [Compound 904]	–	4	–	–	147
Cc1ccc2[nH]ncc2c1-c1nc(-c2ccc(S(C)(=O)=O)cc2NC2CCOCC2)nc(C(N)=O)c1N [Compound 831]	–	< 3	–	–	118
Cc1ccc2[nH]ncc2c1-c1nc(-c2ccc3c(cnn3C)c2)nc(C(N)=O)c1N [Compound 114]	–	46	3760	–	–
Cc1ccc2[nH]ncc2c1-c1nc(-c2ccccc2NC(=O)C(C)(C)F)nc(C(N)=O)c1N [Compound 434]	8	3	–	–	–
Cc1ccc2[nH]ncc2c1-c1cc(-c2cccc(OCc3cscn3)n2)nc(C(N)=O)c1N [Compound 278]	–	5	158	–	–
Cc1ccc(O)c(C)c1-c1cc(-c2cnccn2)nc(C(N)=O)c1N [Compound 26]	–	3	76	–	–
Cc1ccc(O)cc1-c1nc(-c2ccc(C(F)(F)F)cc2)nc(C(N)=O)c1N [Compound 7]	–	31	737	–	–
Cc1ccc2[nH]ncc2c1-c1cc(-c2ccnc(OC(C)C)n2)nc(C(N)=O)c1N [Compound 160, 3-amino-6-(2-isopropoxypyrimidin-4-yl)-4-(5-methyl-1H-indazol-4-yl)picolinamide]	–	7	388	–	–
Cc1ccc2[nH]ncc2c1-c1nc(-c2ccccc2C(F)F)nc(C(N)=O)c1N [Compound 414]	2460	122	–	–	–
Cc1ccc2[nH]ncc2c1-c1cc(-c2ccncn2)nc(C(N)=O)c1N [Compound 105]	–	12	551	–	–
Cc1ccc2[nH]ncc2c1-c1nc(-c2cn(C)nc2NC2CCOCC2)nc(C(N)=O)c1N [Compound 845]	–	4	–	–	58
Cc1ccc2[nH]ncc2c1-c1cc(-c2ccnc(Nc3ccncc3)n2)nc(C(N)=O)c1N [Compound 200]	–	11	154	–	–
Cc1ncc(C#N)c(Nc2cc(F)ccc2-c2nc(C(N)=O)c(N)c(-c3c(C)ccc4[nH]ncc34)n2)n1 [Compound 618]	5	3	–	–	–
Cc1cccc(-c2nc(C(N)=O)c(N)c(-c3c(C)ccc4[nH]ncc34)n2)c1NC(=O)C1(C)CC1 [Compound 440]	523	13	–	–	–

SMILES	IC50 ([1]; 2 h, 2 h compound incubation) [nM]	IC50 [2] [nM]	IC50 ([1]; 2 h, 2 h incubation) [nM]	IC50 ([1]; 2 h incubation) [nM]	IC50 ([1]; 2 h, 2 hours with compound) [nM]
Cc1ccc2[nH]ncc2c1-c1nc(-c2ccccc2NC(=O)C2CC2)nc(C(N)=O)c1N [Compound 397]	13	4	–	–	–
Cc1ccc2[nH]ncc2c1-c1nc(-c2ccccc2NC2CC2)nc(C(N)=O)c1N [Compound 476]	25	3	–	–	–
Cc1cc(F)c2[nH]ncc2c1-c1nc(-c2cn(C)nc2NC2CCOCC2)nc(C(N)=O)c1N [Compound 903, 5-amino-6-(7-fluoro-5-methyl-1H-indazol-4-yl)-2-(1-methyl-3-((tetrahydro-2H-pyran-4-yl)amino)-1H-pyrazol-4-yl)pyrimidine-4-carboxamide]	–	4	–	–	195
Cc1ccc2[nH]ncc2c1-c1cc(-c2cc(Cl)ccn2)nc(C(N)=O)c1N [Compound 257]	–	12	1170	–	–
Cc1ccc2[nH]ncc2c1-c1nc(-c2ccccc2NC(=O)C2(F)CC2)nc(C(N)=O)c1N [Compound 461]	6	3	–	–	–
Cc1ccc2[nH]ncc2c1-c1cc(-c2ccc(-c3nccs3)nc2)nc(C(N)=O)c1N [Compound 186]	–	47	1690	–	–
Cc1ccc2[nH]ncc2c1-c1nc(-c2cc(F)cc(F)c2NCC(F)F)nc(C(N)=O)c1N [Compound 436]	206	7	–	–	–
Cc1ccc(O)c(C)c1-c1nc(-c2ccnnc2)cc(C(N)=O)c1N [Compound 88]	–	7	–	401	–
Cc1ccc(O)c(C)c1-c1cc(-c2cncs2)nc(C(N)=O)c1N [Compound 82]	–	7	107	–	–
Cc1ccc2[nH]ncc2c1-c1cc(-c2ccnc(OCC3CCCO3)n2)nc(C(N)=O)c1N (centres unmarked) [Compound 211]	–	7	184	–	–
Cc1ccc2[nH]ncc2c1-c1nc(-c2ccc(F)cc2Nc2ncccc2Cl)nc(C(N)=O)c1N [Compound 611]	22	21	–	–	–
Cc1ccc(O)c(C)c1-c1cc(-c2cc(C(F)(F)F)ccn2)nc(C(N)=O)c1N [Compound 67]	–	2	272	–	–
Cc1ccc2[nH]ncc2c1-c1cc(-c2cccc(O[C@H]3CCOC3)n2)nc(C(N)=O)c1N (atropisomer, axis not shown) [Compound 226]	–	4	367	–	–
Cc1ccc2[nH]ncc2c1-c1cc(-c2ccnc(OCc3ccncc3)n2)nc(C(N)=O)c1N [Compound 230]	–	4	208	–	–
Cc1ccc2[nH]ncc2c1-c1nc(-c2ccccc2NC(C)C(F)(F)F)nc(C(N)=O)c1N (centres unmarked) [Compound 381, 5-amino-6-(5-methyl-1H-indazol-4-yl)-2-(2-((1,1,1-trifluoropropan-2-yl)amino)phenyl)pyrimidine-4-carboxamide]	–	11	13	–	–
COCC(COC)Oc1nccc(-c2cc(-c3c(C)ccc4[nH]ncc34)c(N)c(C(N)=O)n2)n1 [Compound 207]	–	9	144	–	–
Cc1ccc(O)c(C)c1-c1cc(-c2nccs2)cc(C(N)=O)c1N [Compound 81]	–	5	112	–	–
Cc1ccc2[nH]ncc2c1-c1cc(-c2ccnc(OC3CCOCC3)n2)nc(C(N)=O)c1N [Compound 169]	–	8	120	–	–
Cc1ccc2[nH]ncc2c1-c1nc(-c2cccnc2N[C@@H](c2cccnc2)C(F)F)nc(C(N)=O)c1N [Compound 937]	–	2	–	–	216
Cc1ccc2[nH]ncc2c1-c1nc(-c2cn(CC3CC3)nc2NC2CCOCC2)nc(C(N)=O)c1N [Compound 892]	–	15	–	–	589
CC[C@H](COc1nccc(-c2cc(-c3c(C)ccc4[nH]ncc34)c(N)c(C(N)=O)n2)n1)OC (atropisomer, axis not shown) [Compound 333]	–	3	21	–	–
Cc1ccc2[nH]ncc2c1-c1nc(-c2cc(F)c(F)cc2NCC(F)F)nc(C(N)=O)c1N [Compound 467]	106	6	–	–	–
Cc1ccc(O)cc1-c1nc(-c2cccc(Cl)c2)nc(C(N)=O)c1N [Compound 29]	–	25	1220	–	–
Cc1cccc(-c2cc(-c3c(C)ccc(O)c3C)c(N)c(C(N)=O)n2)n1 [Compound 91]	–	3	–	113	–
NC(=O)c1nc(-c2ccccc2NC(=O)C2(C(F)(F)F)CC2)nc(-c2c(Cl)ccc3[nH]ncc23)c1N [Compound 411]	60	7	–	–	–
COC(COc1nccc(-c2cc(-c3c(C)ccc4[nH]ncc34)c(N)c(C(N)=O)n2)n1)C1CC1 (centres unmarked) [Compound 391]	–	5	56	–	–
Cc1ccc2[nH]ncc2c1-c1nc(-c2ccc(F)cc2Nc2ccnc(C#N)c2)nc(C(N)=O)c1N [Compound 620]	41	3	–	–	–
